Literature values in PubChem BioAssay AID1259409 (Chemical Carcinogenesis Research Information System (CCRIS), 2018).
Where “and” joins values, the source holds several entries; their conditions need not be identical. Equal entries are not always repeated.

Test system: rodent chemically induced tumor inhibition, incidence and multiplicity
Test: CCRIS tumor inhibitor studies

Nc1nc2ncc(CNc3ccc(C(=O)N[C@@H](CCC(=O)O)C(=O)O)cc3)nc2c(=O)[nH]1
tumour outcome (control, treated, inhibition, significance) (Carcinogen: HYDRAZINE SULFATE, 10034-93-2, Dose [Inhibitor]: 1.1 MG/D IN DIET STARTING 1 WK PRIOR TO ADMINISTRATION OF CARCINOGEN UNTIL END OF EXPERIMENT (STUDY DURATION: APPROXIMAT, Route [Inhibitor]: ORAL, Species: MOUSE, Strain/Sex: SWISS/MALE, FEMALE, Target Tissue: Type of Lesion: LIVER AND LUNG: COMBINED TUMORS, Dose [Carcinogen]: 1.1 MG/D 5 D/WK UNTIL 12 MO OF AGE, Promoter: NONE USED): 24/29 (83%), 19/31 (61%), 26%, p<0.1 | tumour outcome (control, treated, inhibition, significance) (Carcinogen: ISONIAZID, 54-85-3, Dose [Inhibitor]: 1.1 MG/D SIMULTANEOUS WITH CARCINOGEN 6 D/WK (STUDY DURATION: LIFETIME), Route [Inhibitor]: INTRAGASTRIC, Species: MOUSE, Strain/Sex: SWISS/MALE, Target Tissue: Type of Lesion: LUNG: TUMOR, Dose [Carcinogen]: 1.1 MG/D SIMULTANEOUS WITH INHIBITOR, Promoter: NONE USED): 15/29 (52%), 0/16 (0%), 100%, p<0.01 | tumour outcome (control, treated, inhibition, significance) (Carcinogen: N-methyl-N'-nitro-N-nitrosoguanidine, 70-25-7, Dose [Inhibitor]: 0, 5 mg/kg in water for 50 weeks beginning at 6 weeks of age, Route [Inhibitor]: Oral, Species: Rat, Strain/Sex: Wistar/Male, Target Tissue: Type of Lesion: Stomach: Tumor, Dose [Carcinogen]: 100 mg/L in drinking water for 50 weeks): 5/11 (45.5%), 0/10 (0%), 100% p<0.05

CCCCC/C=C/CC/C=C/CCCCCCC(=O)O
tumour outcome (control, treated, inhibition, significance) (Carcinogen: BENZO[A]PYRENE, 50-32-8, Dose [Inhibitor]: 0, 0.1 ML IN 0.1 ML OLIVE OIL 4 AND 2 D PRIOR TO CARCINOGEN DOSE (CYCLE REPEATED 4 X) (STUDY DURATION: 23 WK), Route [Inhibitor]: GAVAGE, Species: MOUSE, Strain/Sex: ICR/FEMALE, Target Tissue: Type of Lesion: STOMACH: PAPILLOMA, Dose [Carcinogen]: 2 MG IN 0.2 ML OLIVE OIL 1/WK FOR 4 WK): 91%, 71%, 22%, p<0.05 and 96%, 96%, 0% and 100%, 71%, 29%, p<0.05

Cc1occc(=O)c1O
tumour outcome (control, treated, inhibition, significance) (Carcinogen: BENZO[A]PYRENE, 50-32-8, Dose [Inhibitor]: 0.034 MMOL/G IN DIET BEGINNING 1 WK PRIOR TO CARCINOGEN DOSE AND CONTINUING FOR 3 D POST LAST CARCINOGEN DOSE (STUDY DUR, Route [Inhibitor]: ORAL, Species: MOUSE, Strain/Sex: ICR/FEMALE, Target Tissue: Type of Lesion: FORESTOMACH: TUMOR, Dose [Carcinogen]: 1 MG IN 0.2 ML CORN OIL 2/WK FOR 4 WK, Promoter: NONE USED): 94%, 100%, -6%, not significant

O=c1[nH]c(=O)c2[nH]cnc2[nH]1
tumour outcome (control, treated, inhibition, significance) (Carcinogen: URETHANE, 51-79-6, Dose [Inhibitor]: 0.05 UMOL/G BW GIVEN AT 6 HR INTERVALS FOR 36 HR AFTER CARCINOGEN TREATMENT (STUDY DURATION: 5 MO), Route [Inhibitor]: INTRAPERITONEAL, Species: MOUSE, Strain/Sex: ICR/FEMALE, Target Tissue: Type of Lesion: LUNG: PAPILLARY ADENOMA, Dose [Carcinogen]: 0.1 MG/G BW ONCE, Promoter: NONE USED): 31/59 (53%), 26/40 (65%), -23%, not significant

COc1cc(OC)c2ccc(=O)oc2c1
tumour outcome (control, treated, inhibition, significance) (Carcinogen: 7,12-DIMETHYLBENZ(A)ANTHRACENE, 57-97-6, Dose [Inhibitor]: 0.068 MMOL/G IN DIET FOR 8 D BEGINNING 7 D PRIOR TO CARCINOGEN DOSE (STUDY DURATION: 23 WK), Route [Inhibitor]: ORAL, Species: RAT, Strain/Sex: SPRAGUE-DAWLEY/FEMALE, Target Tissue: Type of Lesion: MAMMARY GLAND: TUMOR, Dose [Carcinogen]: 12 MG IN 1.0 ML OLIVE OIL ONCE ON D 7 OF EXPERIMENT, Promoter: NONE USED): 85%, 38%, 55%, p<0.05 | tumour outcome (control, treated, inhibition, significance) (Carcinogen: BENZO[A]PYRENE, 50-32-8, Dose [Inhibitor]: 0.034 MMOL/G IN DIET BEGINNING 1 WK PRIOR TO FIRST CARCINOGEN DOSE AND CONTINUING FOR 3 D POST LAST CARCINOGEN DOSE FOR, Route [Inhibitor]: ORAL, Species: MOUSE, Strain/Sex: ICR/FEMALE, Target Tissue: Type of Lesion: FORESTOMACH: TUMOR, Dose [Carcinogen]: 1 MG IN 0.2 ML CORN OIL 2/WK FOR 4 WK, Promoter: NONE USED): 100%, 94%, 6%, not significant

CC1=CC(=O)c2c(O)cccc2C1=O
tumour outcome (control, treated, inhibition, significance) (Carcinogen: AZOXYMETHANE [25843-45-2], Dose [Inhibitor]: 200 PPM IN DIET FOR 4 WK BEGINNING 1 WK PRIOR TO FIRST CARCINOGEN DOSE (STUDY DURATION: 35 WK), Route [Inhibitor]: ORAL, Species: RAT, Strain/Sex: F344/MALE, Target Tissue: Type of Lesion: COLON: ADENOMA, Dose [Carcinogen]: 15 MG/KG BW 1X/WK FOR 3 WK (STUDY DURATION: 35 WK), Promoter: NONE): 6/28 (21%), 3/29 (10%), 52%, not significant | tumour outcome (control, treated, inhibition, significance) (Carcinogen: AZOXYMETHANE [25843-45-2], Dose [Inhibitor]: 200 PPM IN DIET FOR 4 WK BEGINNING 1 WK PRIOR TO FIRST CARCINOGEN DOSE (STUDY DURATION: 35 WK), Route [Inhibitor]: ORAL, Species: RAT, Strain/Sex: F344/MALE, Target Tissue: Type of Lesion: COLON: CARCINOMA, Dose [Carcinogen]: 15 MG/KG BW 1X/WK FOR 3 WK (STUDY DURATION: 35 WK), Promoter: NONE): 8/28 (29%), 8/29 (28%), 3%, not significant | tumour outcome (control, treated, inhibition, significance) (Carcinogen: AZOXYMETHANE [25843-45-2], Dose [Inhibitor]: 200 PPM IN DIET FOR 4 WK BEGINNING 1 WK PRIOR TO FIRST CARCINOGEN DOSE (STUDY DURATION: 35 WK), Route [Inhibitor]: ORAL, Species: RAT, Strain/Sex: F344/MALE, Target Tissue: Type of Lesion: SMALL INTESTINE: CARCINOMA, Dose [Carcinogen]: 15 MG/KG BW 1X/WK FOR 3 WK (STUDY DURATION: 35 WK), Promoter: NONE): 7/28 (25%), 3/29 (10%), 60%, not significant

COc1cc([C@H]2Oc3cc([C@H]4Oc5cc(O)cc(O)c5C(=O)[C@@H]4O)ccc3O[C@@H]2CO)ccc1O
outcome (Carcinogen: N-Butyl-N-(4-hydroxybutyl)nitrosamine, 3817-11-6, Dose [Inhibitor]: 200 mg/kg bw 1 wk before carcinogen, dose duration 51 wk, study duration 56 wk, Route [Inhibitor]: Oral (gavage) 5 d/wk, Species: Mouse, Strain/Sex: ICR/Male, Target Tissue: Type of Lesion: Urinary Bladder: carcinoma, Dose [Carcinogen]: 0, 0.5% in drinking water for 6 wk, Promoter: None): 52%, 4.1%, p=0.001
